In patent EP0035868A1, “Bicyclic compounds, their production and use” (Takeda Chemical Industries, Ltd., priority 1980, dated 1981):

What was measured:
[1] = system: Hypertensive Activity of Angiotensin I; test: Effect against hypertensive activity of angiotensin I in rats, oral administration; type: in vivo, Male rats (Sprague-Dawley); conditions: 13.8 µM/kg orally, angiotensin I 300 ng/kg i.v., corrected by angiotensin II reaction
Procedure: Male rats (Sprague-Dawley) weighing 250 g to 350 g which were fed under free access to drinking water and feeds were used as experimental animals. The rats were anesthetized with intraperitoneal administration of pentobarbital sodium (50 mg/kg) on the day before the test day and a polyethylene tube was inserted into each of the femoral artery for measurement of blood pressure and the femoral vein for injection of angiotensin I and II, and then the tubes were fixed.
On the test day, an average blood pressure in the control phase was recorded on an electric hemodynamometer (MP-4T model manufactured by Nippon Koden, Japan) and thereafter angiotensin I and then angiotensin II were injected through the femoral vein at a dose of 300 ng/kg and 100 ng/kg respectively, to measure the hypertensive activity. Then, 13.8 µM/kg of the compound of this invention was administered orally as an aqueous solution or an aqueous gum arabic suspension, and 20, 60 and 120 minutes after the administration, angiotensin I and II were injected repeatedly to trace hypertensive reactions. In calculating the percent inhibition to the hypertensive acitivity of angiotensin I, the-percent inhibitory value was corrected based on the variation with time in the hypertensive reaction by angiotensin II.

[2] = target: T1, ACE (angiotensin I converting enzyme) (Oryctolagus cuniculus, UniProt P12822); test: Inhibition of angiotensin I converting enzyme (HHL substrate, modified Cushman method); type: biochemical; conditions: 37°C, one hour, read-out: Inhibitory Activity on ACE (%); for inhibition at 1 µM: Concentration 1 μM; for inhibition at 10 µM: Concentration 10 μM
T1 sequence (P12822 34-1310): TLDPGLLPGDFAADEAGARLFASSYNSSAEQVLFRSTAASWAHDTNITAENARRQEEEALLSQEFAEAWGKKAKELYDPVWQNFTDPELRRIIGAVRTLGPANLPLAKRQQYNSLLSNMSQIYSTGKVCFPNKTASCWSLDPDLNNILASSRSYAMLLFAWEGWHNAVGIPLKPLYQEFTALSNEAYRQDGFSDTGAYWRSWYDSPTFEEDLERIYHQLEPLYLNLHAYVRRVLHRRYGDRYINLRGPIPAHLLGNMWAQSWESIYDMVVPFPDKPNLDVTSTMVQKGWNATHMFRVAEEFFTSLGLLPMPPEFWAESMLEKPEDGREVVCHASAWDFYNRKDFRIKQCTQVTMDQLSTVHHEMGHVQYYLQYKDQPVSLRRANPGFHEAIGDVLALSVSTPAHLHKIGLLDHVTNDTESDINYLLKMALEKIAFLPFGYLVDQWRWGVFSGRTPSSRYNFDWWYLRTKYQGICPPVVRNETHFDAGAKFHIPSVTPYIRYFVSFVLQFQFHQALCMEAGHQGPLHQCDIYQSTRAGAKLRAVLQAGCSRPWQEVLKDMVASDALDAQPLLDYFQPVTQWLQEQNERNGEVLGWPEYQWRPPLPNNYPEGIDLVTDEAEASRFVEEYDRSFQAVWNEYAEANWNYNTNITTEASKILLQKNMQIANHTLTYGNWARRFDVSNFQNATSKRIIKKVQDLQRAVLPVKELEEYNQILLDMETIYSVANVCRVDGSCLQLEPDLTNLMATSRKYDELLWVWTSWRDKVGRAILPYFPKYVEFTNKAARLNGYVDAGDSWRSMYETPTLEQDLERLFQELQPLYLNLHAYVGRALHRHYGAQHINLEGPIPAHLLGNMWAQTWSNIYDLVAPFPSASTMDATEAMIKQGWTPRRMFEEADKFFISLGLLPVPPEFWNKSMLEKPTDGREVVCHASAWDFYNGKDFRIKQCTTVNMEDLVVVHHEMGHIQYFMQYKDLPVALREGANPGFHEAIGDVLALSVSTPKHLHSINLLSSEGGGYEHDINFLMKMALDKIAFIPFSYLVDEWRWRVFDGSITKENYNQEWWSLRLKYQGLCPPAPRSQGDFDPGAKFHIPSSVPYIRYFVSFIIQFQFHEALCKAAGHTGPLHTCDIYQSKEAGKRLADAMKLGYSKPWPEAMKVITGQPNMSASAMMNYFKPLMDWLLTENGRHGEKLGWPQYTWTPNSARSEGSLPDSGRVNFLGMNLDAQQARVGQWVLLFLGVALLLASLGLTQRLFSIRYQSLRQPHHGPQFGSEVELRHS
Procedure: The experiment was conducted in accordance with a modification of the method described by Cushman et al. [Biochemical Pharmacology, Vol. 20, pl637(1971)].
That is, using hippuryl-L-histidyl-L-leucine(HHL) as the substrate, the ACE (angiotensin I converting enzyme) inhibitory activity was determined in terms of percent inhibition on the amount of hippuric acid produced by ACE when the present compound was added. A solution of the compound of the present invention dissolved in a 0.02 to 2% dimethyl sulfoxide-500 mM potassium phosphate buffer solution (pH 8.3, containing 300 mM sodium chloride) was added to 100 µl of ACE (protein concentration, 20 mg/ml) and 100 µl of 1.25 mM HHL. In this experiment, a potassium phosphate buffer solution containing dimethyl sulfoxide at a concentration equal to that of the test solution was used as a control. After incubating the solution at 37°C for one hour, 150 µl of 1N hydrochloric acid was added to the solution to terminate the reaction. After 1 ml of ethyl acetate was added, the solution was centrifuged at 3000 r.p.m. for 10 minutes. A 0.5 ml aliquot was separated from the ethyl acetate layer and dried at a temperature below 50°C under nitrogen gas streams. The residue was mixed with 5 ml of 1M aqueous sodium chloride and the mixture was subjected to colorimetry at a wavelength of 228 nm.

| Structure (SMILES) | Percent Inhibition (%) against Hypertensive Reaction by Angiotensin I ([1]; After 20 min.) | Percent Inhibition (%) against Hypertensive Reaction by Angiotensin I ([1]; After 60 min.) | Percent Inhibition (%) against Hypertensive Reaction by Angiotensin I ([1]; After 120 min.) | inhibition at 1 µM [2] | inhibition at 10 µM [2] |
| --- | --- | --- | --- | --- | --- |
| COc1ccc2c(c1)C(N(CC(=O)O)C(=O)C(C)CSC(C)=O)CC2 (stereo not drawn) [Example 1, N-(3-acetylthio-2-methylpropionyl)-N-(6-methoxy-l-indanyl)-glycine] | 96% | 94% | 91% | – | – |
| CC(=O)SCC(C)C(=O)N(CC(=O)O)C1CCc2ccccc21 (centres unmarked) [Example 3] | 95% | 90% | 83% | – | – |
| CC(=O)SCC(C)C(=O)N(CC(=O)O)C1CCc2cc(O)ccc21 (centres unmarked) [Example 6] | – | – | – | 45% | 88% |
| COc1cc2c(cc1OC)C(N(CC(=O)O)C(=O)C(C)CSC(C)=O)CC2 (centres unmarked) [Example 8, N-(3-Acetylthio-2-methylpropionyl)-N-(5,6-dimethoxy-1-indanyl)glycine] | 86% | 94% | 91% | – | – |
| CC(=O)SCC(C)C(=O)N(CC(=O)O)C1CCc2cc3c(cc21)OCO3 (centres unmarked) [Example 9, N-(3-acetylthio-2-methylpropionyl)-N-(5,6-methylenedioxy-I-indanyl)glycine] | 81% | 78% | 59% | – | – |
| COc1ccc2c(c1OC)CCCC2N(CC(=O)O)C(=O)C(C)CSC(C)=O (centres unmarked) [Example 18] | 83% | 70% | 72% | – | – |
| CC(=O)SCC(C)C(=O)N(CC(=O)O)C1CCOc2ccc(Cl)cc21 (centres unmarked) [Example 21] | – | – | – | 19% | 66% |
| CC(=O)SCC(C)C(=O)N(CC(=O)O)C1CCc2ccccc2C1 (centres unmarked) [Example 32, N-(3-acetylthio-2-methylpropionyl)-N-(1,2,3,4-tetrahydro-2-naphthyl)glycine] | – | – | – | 73% | 95% |
| CC(=O)SCC(C)C(=O)N(CC(=O)O)C1Cc2ccccc2C1 (centres unmarked) [Example 35, N-(3-acetylthio-2-methylpropionyl)-N-(2-indanyl)glycine] | 100% | 100% | 91% | – | – |
| C[C@H](CSC(=O)c1ccccc1)C(=O)N(CC(=O)O)C1Cc2ccccc2C1 [Example 38, N-(3-benzoylthio-2(S)-methylpropionyl)-N-(2-indanyl)glycine] | – | – | – | 86% | 98% |
| CC(=O)SCCC(=O)N(CC(=O)O)C1Cc2ccccc2C1 [Example 40, N-(3-acetylthiopropionyl)-N-(2-indanyl) glycine] | – | – | – | 77% | 92% |
| COc1cc2c(cc1OC)CC(N(CC(=O)O)C(=O)C(C)CSC(C)=O)C2 (centres unmarked) [Example 41, N-(3-acetylthio-2-methylpropionyl)-N-(5,6-dimethoxy-2-indanyl)glycine] | 89% | 93% | 92% | – | – |
| COc1cc2c(cc1OC)C(N(CC(=O)O)C(=O)C(CSC(C)=O)CSC(C)=O)CC2 (centres unmarked) [Example 43, N-(3-acetylthio-2-acetylthiomethylpropionyl)-N-(5,6-dimethoxy-1-indanyl)glycine] | – | – | – | 32% | 75% |
| COc1cc2c(cc1OC)C(N(CC(=O)O)C(=O)C(C)CS)CC2 (stereo not drawn) [Example 45, N-(3-mercapto-2-methylpropionyl)-N-(5,6-dimethoxy-l-indanyl)glycine] | – | – | – | 74% | 99% |
